The subject of this assay is isolated guinea pig ileum. The experiment in a line: Anti-cholinergic activity: acetylcholine-induced contraction of isolated guinea pig ileum. The settings on record: in words; isolated compounds were tested only on isolated guinea pig ileum.

Method: Female, virgin guinea pigs weighing around 300 to 350 g, housed under uniform husbandry conditions (temperature 25±1° C.) were used. The animals were starved 24 hours prior to the experiment, only water was provided ad libitum.
The isolated guinea pig ileum was used to study the anti-spasmodic, anti-cholinergic, and anti-arrhythmic activity of the active fractions.
In particular, the five compounds isolated were tested only on isolated guinea pig ileum. The longitudinal ileal muscle from a freshly killed guinea pig was suspended in an organ bath of 10 ml capacity, filled with Tyrode solution, and aerated with air.
All of these compounds were dissolved in 1000 ml of distilled water.
Two to four doses of acetylcholine were added to the bath to obtain uniform amplitude with a contact period of 30 seconds, the contractions of which were recorded on a polygraph. The five compounds isolated were tested in doses of 196 and 392×10^−6 moles per ml of bath concentration.

As to `C=C(C)[C@@H]1CC[C@]2(CO)CC[C@]3(C)[C@H](CC[C@@H]4[C@@]5(C)CC[C@H](O)C(C)(C)[C@@H]5CC[C@]43C)[C@@H]12` [betulin], the “biological activity shown by the extract, in purified compounds” value is listed as “maintained”.
As for `CCCCCCCCCCCCCCCC(=O)OC` [methyl palmitate], the “biological activity shown by the extract, in purified compounds” value was “maintained”.

The record behind these values is US6753021B2, “Biologically active chloroform fraction of an extract obtained from a mangrove plant Salvadora persica L” (Council of Scientific & Industrial Research, priority 2001, dated 2004).
